Source: ChEMBL document CHEMBL4507268 (2021)

Assays:
[1] = test system: Tyrosine-protein kinase ABL1 (Homo sapiens), P00519 [H396P]; details: Compound concentration 1000.0 nM
[2] = test system: ALK tyrosine kinase receptor (Homo sapiens), Q9UM73 [C1156Y]; details: Compound concentration 1000.0 nM
[3] = biological target: Mitogen-activated protein kinase kinase kinase 6 (Homo sapiens) (UniProt O95382); details: Compound concentration 1000.0 nM
[4] = biological target: Tyrosine-protein kinase receptor UFO (Homo sapiens) (UniProt P30530); details: Compound concentration 1000.0 nM
Tyrosine-protein kinase receptor UFO (Homo sapiens), sequence (P30530 whole entry): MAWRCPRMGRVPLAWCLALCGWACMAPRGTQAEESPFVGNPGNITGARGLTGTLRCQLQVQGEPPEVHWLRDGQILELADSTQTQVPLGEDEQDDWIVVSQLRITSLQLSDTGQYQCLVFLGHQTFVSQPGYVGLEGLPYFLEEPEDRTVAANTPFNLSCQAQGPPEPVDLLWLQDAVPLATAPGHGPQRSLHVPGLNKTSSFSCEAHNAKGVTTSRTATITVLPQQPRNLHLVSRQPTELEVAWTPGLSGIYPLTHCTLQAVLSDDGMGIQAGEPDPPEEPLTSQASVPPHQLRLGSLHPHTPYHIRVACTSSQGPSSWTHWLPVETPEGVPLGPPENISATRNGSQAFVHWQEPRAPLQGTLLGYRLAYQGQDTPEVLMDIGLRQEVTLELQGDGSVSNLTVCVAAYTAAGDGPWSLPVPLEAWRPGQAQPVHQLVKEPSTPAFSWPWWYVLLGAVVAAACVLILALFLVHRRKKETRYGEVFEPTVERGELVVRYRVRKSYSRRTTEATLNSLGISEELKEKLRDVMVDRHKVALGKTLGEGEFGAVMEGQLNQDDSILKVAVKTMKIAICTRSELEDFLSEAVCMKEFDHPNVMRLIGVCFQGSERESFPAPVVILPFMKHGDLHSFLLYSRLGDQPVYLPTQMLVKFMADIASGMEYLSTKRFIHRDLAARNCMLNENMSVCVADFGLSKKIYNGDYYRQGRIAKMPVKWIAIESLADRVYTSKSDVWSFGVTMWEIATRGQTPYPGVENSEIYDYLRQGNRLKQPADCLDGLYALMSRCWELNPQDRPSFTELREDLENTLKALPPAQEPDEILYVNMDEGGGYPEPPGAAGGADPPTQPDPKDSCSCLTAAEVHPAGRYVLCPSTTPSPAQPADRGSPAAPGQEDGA

[5] = biological target: T1, Serine/threonine-protein kinase Chk1 (Homo sapiens) (UniProt O14757); details: Compound concentration 1000.0 nM
T1 sequence (whole entry): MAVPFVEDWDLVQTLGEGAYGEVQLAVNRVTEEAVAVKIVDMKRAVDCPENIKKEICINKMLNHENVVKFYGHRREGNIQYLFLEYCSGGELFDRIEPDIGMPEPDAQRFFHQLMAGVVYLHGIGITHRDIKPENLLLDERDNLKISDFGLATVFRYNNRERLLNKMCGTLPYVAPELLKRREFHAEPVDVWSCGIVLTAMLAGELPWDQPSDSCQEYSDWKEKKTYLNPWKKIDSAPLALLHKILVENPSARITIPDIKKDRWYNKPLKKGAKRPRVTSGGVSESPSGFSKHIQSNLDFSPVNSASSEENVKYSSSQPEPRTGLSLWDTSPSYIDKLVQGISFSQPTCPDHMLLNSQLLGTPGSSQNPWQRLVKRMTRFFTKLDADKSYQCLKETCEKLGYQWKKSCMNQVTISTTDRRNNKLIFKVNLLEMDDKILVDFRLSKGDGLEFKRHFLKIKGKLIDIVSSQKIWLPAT

[6] = biological target: Dual specificity protein kinase CLK3 (Homo sapiens) (UniProt P49761); details: Compound concentration 1000.0 nM
[7] = biological target: Tyrosine-protein kinase CSK (Homo sapiens) (UniProt P41240); details: Compound concentration 1000.0 nM
Tyrosine-protein kinase CSK (Homo sapiens), sequence (P41240 2-450 limits assumed): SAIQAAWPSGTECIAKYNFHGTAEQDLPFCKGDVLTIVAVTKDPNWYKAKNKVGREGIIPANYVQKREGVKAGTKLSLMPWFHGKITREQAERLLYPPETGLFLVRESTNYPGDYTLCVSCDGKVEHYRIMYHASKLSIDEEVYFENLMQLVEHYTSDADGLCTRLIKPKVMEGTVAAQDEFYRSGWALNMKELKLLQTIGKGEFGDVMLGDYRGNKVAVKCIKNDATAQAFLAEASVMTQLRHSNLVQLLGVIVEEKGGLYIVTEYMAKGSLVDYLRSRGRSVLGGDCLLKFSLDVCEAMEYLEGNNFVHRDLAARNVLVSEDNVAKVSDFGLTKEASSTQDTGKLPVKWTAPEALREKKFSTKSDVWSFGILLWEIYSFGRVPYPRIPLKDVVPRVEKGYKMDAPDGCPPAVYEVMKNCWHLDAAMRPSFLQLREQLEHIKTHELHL

[8] = biological target: Megakaryocyte-associated tyrosine-protein kinase (Homo sapiens) (UniProt P42679); details: Compound concentration 1000.0 nM
[9] = test system: Epidermal growth factor receptor (Homo sapiens), P00533 [L858R,T790M]; details: Compound concentration 1000.0 nM
[10] = biological target: Ephrin type-A receptor 5 (Homo sapiens) (UniProt P54756); details: Compound concentration 1000.0 nM
[11] = biological target: Ephrin type-B receptor 6 (Homo sapiens) (UniProt O15197); details: Compound concentration 1000.0 nM
[12] = test system: Fibroblast growth factor receptor 3 (Homo sapiens), P22607 [G697C]; details: Compound concentration 1000.0 nM
[13] = biological target: Myosin-IIIa (Homo sapiens) (UniProt Q8NEV4); details: Compound concentration 1000.0 nM
[14] = biological target: Serine/threonine-protein kinase Nek4 (Homo sapiens) (UniProt P51957); details: Compound concentration 1000.0 nM
[15] = biological target: Mitogen-activated protein kinase 11 (Homo sapiens) (UniProt Q15759); details: Compound concentration 1000.0 nM
Mitogen-activated protein kinase 11 (Homo sapiens), sequence (Q15759 whole entry): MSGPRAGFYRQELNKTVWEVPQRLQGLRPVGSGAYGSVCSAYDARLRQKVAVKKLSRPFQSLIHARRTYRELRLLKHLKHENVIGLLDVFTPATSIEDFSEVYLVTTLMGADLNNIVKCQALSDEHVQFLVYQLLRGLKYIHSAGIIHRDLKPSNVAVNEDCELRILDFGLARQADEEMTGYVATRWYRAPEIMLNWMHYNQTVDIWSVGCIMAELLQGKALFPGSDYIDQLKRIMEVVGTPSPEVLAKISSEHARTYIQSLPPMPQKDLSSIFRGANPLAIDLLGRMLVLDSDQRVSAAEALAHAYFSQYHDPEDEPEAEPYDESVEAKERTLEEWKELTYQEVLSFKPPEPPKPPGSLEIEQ

[16] = biological target: Cyclin-dependent kinase 15 (Homo sapiens) (UniProt Q96Q40); details: Compound concentration 1000.0 nM
Cyclin-dependent kinase 15 (Homo sapiens), sequence (Q96Q40 whole entry): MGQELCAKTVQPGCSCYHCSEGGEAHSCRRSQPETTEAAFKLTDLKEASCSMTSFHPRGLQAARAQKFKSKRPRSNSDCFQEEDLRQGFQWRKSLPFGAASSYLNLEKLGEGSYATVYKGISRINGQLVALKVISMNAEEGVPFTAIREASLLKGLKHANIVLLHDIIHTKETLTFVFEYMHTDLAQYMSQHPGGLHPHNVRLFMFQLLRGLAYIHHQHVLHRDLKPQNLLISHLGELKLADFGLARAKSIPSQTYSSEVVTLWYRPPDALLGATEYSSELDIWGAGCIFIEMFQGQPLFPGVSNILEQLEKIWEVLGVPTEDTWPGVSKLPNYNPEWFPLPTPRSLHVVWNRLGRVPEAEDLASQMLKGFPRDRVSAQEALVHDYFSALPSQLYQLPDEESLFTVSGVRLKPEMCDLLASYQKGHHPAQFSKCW

[17] = biological target: Protein-tyrosine kinase 2-beta (Homo sapiens) (UniProt Q14289); details: Compound concentration 1000.0 nM
[18] = test system: Proto-oncogene tyrosine-protein kinase receptor Ret (Homo sapiens), P07949 [V804L]; details: Compound concentration 1000.0 nM
[19] = biological target: Ribosomal protein S6 kinase alpha-6 (Homo sapiens) (UniProt Q9UK32); details: Compound concentration 1000.0 nM
[20] = biological target: T2, NUAK family SNF1-like kinase 2 (Homo sapiens) (UniProt Q9H093); details: Compound concentration 1000.0 nM
T2 sequence (whole entry): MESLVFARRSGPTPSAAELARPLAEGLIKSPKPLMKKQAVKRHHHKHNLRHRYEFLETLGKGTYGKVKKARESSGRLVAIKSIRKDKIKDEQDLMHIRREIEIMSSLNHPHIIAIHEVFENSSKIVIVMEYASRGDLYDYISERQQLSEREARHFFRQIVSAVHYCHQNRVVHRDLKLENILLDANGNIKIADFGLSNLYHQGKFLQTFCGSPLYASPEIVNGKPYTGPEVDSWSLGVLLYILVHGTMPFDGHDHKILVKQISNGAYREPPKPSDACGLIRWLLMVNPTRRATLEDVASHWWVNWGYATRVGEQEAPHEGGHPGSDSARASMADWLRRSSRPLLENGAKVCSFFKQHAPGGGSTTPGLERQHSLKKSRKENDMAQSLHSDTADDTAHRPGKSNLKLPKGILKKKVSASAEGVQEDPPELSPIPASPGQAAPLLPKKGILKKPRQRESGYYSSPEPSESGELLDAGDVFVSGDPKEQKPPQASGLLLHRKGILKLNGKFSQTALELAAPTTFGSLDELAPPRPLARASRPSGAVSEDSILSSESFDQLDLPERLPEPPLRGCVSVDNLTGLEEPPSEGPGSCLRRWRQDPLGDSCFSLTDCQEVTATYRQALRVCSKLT

[21] = biological target: SRSF protein kinase 3 (Homo sapiens) (UniProt Q9UPE1); details: Compound concentration 1000.0 nM
SRSF protein kinase 3 (Homo sapiens), sequence (Q9UPE1 whole entry): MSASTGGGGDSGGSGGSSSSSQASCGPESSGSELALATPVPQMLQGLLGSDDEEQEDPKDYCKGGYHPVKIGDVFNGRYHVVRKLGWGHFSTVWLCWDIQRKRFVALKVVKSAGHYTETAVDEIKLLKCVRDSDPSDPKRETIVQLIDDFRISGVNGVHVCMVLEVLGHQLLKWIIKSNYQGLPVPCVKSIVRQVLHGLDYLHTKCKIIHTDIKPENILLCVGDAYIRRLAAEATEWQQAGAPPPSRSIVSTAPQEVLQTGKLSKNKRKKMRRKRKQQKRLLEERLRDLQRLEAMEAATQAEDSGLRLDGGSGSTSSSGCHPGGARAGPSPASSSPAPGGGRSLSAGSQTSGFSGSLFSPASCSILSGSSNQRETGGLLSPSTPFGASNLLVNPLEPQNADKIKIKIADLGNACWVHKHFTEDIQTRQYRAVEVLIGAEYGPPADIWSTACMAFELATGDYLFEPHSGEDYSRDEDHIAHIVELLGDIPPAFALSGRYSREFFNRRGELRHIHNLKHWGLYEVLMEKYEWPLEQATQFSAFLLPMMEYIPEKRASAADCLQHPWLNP

[22] = biological target: Non-receptor tyrosine-protein kinase TNK1 (Homo sapiens) (UniProt Q13470); details: Compound concentration 1000.0 nM
[23] = biological target: Serine/threonine-protein kinase TNNI3K (Homo sapiens) (UniProt Q59H18); details: Compound concentration 1000.0 nM
[24] = biological target: Histamine H2 receptor (Homo sapiens) (UniProt P25021); details: Compound concentration 10.0 uM
Histamine H2 receptor (Homo sapiens), sequence (P25021 whole entry): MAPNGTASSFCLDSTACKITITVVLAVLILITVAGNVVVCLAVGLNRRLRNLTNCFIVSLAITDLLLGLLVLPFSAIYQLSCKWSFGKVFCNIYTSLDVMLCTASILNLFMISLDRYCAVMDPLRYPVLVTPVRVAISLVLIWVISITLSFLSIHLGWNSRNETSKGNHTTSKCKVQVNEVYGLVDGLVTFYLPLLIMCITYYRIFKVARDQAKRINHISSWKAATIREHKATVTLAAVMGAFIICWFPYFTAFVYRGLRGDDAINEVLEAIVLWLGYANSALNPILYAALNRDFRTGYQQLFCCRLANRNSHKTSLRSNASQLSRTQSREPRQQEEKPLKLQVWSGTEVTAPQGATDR

[25] = biological target: Sigma non-opioid intracellular receptor 1 (Homo sapiens, UniProt Q99720); details: Compound concentration 10.0 uM
Sigma non-opioid intracellular receptor 1, sequence (Q99720 whole entry): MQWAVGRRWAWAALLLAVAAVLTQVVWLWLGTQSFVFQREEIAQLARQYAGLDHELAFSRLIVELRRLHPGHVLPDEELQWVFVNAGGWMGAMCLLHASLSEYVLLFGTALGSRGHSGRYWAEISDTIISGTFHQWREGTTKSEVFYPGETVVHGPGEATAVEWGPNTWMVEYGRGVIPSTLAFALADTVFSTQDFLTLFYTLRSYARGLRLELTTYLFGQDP

Mitogen-activated protein kinase kinase kinase 6 (Homo sapiens), sequence (O95382 whole entry): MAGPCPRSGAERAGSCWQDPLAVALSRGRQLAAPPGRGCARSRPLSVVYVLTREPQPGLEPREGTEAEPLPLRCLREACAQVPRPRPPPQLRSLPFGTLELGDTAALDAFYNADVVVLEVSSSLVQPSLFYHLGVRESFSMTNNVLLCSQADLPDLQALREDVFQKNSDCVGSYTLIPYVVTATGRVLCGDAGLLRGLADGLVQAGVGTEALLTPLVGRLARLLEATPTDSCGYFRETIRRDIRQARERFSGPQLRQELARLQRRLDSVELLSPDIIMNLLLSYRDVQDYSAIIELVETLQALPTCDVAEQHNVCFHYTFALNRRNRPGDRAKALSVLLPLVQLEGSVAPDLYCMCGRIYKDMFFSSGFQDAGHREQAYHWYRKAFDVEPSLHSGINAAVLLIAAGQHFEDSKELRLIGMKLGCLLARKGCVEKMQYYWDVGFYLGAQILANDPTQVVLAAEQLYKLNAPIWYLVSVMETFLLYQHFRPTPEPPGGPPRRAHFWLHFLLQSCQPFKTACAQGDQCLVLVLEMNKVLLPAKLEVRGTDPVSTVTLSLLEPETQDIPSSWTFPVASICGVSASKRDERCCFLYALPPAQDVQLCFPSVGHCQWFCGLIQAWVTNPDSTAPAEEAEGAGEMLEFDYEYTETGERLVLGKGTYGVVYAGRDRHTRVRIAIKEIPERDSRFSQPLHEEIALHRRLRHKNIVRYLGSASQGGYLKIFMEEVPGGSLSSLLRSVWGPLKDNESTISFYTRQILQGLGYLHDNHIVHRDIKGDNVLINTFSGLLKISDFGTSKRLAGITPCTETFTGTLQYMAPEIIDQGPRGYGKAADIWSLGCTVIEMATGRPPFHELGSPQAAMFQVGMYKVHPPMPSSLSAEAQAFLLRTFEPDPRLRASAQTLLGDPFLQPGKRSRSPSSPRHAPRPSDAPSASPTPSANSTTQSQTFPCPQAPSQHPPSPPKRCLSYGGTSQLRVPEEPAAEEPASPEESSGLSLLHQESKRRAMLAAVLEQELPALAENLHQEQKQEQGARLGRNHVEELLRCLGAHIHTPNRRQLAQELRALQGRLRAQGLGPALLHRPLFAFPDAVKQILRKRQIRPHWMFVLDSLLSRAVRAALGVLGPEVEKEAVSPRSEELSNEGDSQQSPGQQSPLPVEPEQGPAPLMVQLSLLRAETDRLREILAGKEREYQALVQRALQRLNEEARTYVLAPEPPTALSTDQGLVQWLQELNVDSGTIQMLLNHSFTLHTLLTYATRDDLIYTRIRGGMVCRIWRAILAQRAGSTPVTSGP

## Cc1nc(C2CCN(C(=O)c3ccc(OC(F)(F)F)cc3N)CC2)c2ncc(N3CCN(C)CC3)cc2n1 [BAY-693]
[1]
  residual activity: 89%
[2]
  residual activity: 100%
[3]
  residual activity: 100%
[4]
  residual activity: 100%
[5]
  residual activity: 100%
[6]
  residual activity: 94%
[7]
  residual activity: 100%
[8]
  residual activity: 100%
[9]
  residual activity: 88%
[10]
  residual activity: 99%
[11]
  residual activity: 100%
[12]
  residual activity: 100%
[13]
  residual activity: 100%
[14]
  residual activity: 100%
[15]
  residual activity: 100%
[16]
  residual activity: 100%
[17]
  residual activity: 100%
[18]
  residual activity: 73%
[19]
  residual activity: 100%
[20]
  residual activity: 81%
[21]
  residual activity: 100%
[22]
  residual activity: 100%
[23]
  residual activity: 100%
[24]
  inhibition: 23.6%
[25]
  inhibition: 72.7%

## CN1CCN(c2cnc3c(C4CCN(C(=O)c5ccc(OC(F)(F)F)cc5N)CC4)ncnc3c2)CC1 [BAY-885]
[1]
  residual activity: 100%
[2]
  residual activity: 100%
[3]
  residual activity: 100%
[4]
  residual activity: 78%
[5]
  residual activity: 100%
[6]
  residual activity: 100%
[7]
  residual activity: 100%
[8]
  residual activity: 100%
[9]
  residual activity: 95%
[10]
  residual activity: 91%
[11]
  residual activity: 18%
[12]
  residual activity: 100%
[13]
  residual activity: 100%
[14]
  residual activity: 100%
[15]
  residual activity: 98%
[16]
  residual activity: 100%
[17]
  residual activity: 100%
[18]
  residual activity: 97%
[19]
  residual activity: 100%
[20]
  residual activity: 90%
[21]
  residual activity: 100%
[22]
  residual activity: 100%
[23]
  residual activity: 100%
[24]
  inhibition: 31.2%
[25]
  inhibition: 72.4%
